Source: US20190343801A1, “COMPOSITIONS AND METHODS FOR CONTROLLING NATURAL KILLER CELL ACTIVATION AND FUNCTION” (BAR ILAN UNIVERSITY, priority 2017, published 2019)
Where a name gives a salt, the structure may show the parent alone.

Tested on: SHP-1
Assay: PTP assay: SHP-1 catalytic activity (pNPP hydrolysis) after treatment of NK-target cell conjugates
Type: cell-based
Details: inhibited NK cells (YTS-2DL1 + 221-Cw4), untreated 100±2.8%; 1 μM JAS, 25 μM Y-27
Protocol: YTS-2DL1 cells were pretreated with 25 μM Y-27 or left untreated. Cells were incubated at 37° C. with target cells for 5 min, 1 μM of JAS was added, and samples were incubated for 5 minutes before lysis. IP of SHP-1 was performed, and precipitates were incubated with pNpp. SHP-1 activity was determined by measuring absorbance at 405 nm. The graph represents rates of SHP-1 catalytic activity from three independent experiments.
In FIG. 8E, YTS-2DL1 cells were incubated at 37° C. with 221-Cw4 or Cw7 cells for 5 min, treated with 0.5 μM of CytD or left untreated, and SHP-1 activity was determined as detailed in the Materials and Methods. Graph summarizing percent of relative SHP-1 catalytic activity obtained by four independent experiments. Data are means±SEM.
SHP-1 catalytic activity was determined by measuring the hydrolysis of the exogenous substrate p-Nitrophenyl Phosphate (pNPP) by SHP-1, as previously described. NK cells (2-5×10^6) were incubated with target cells at ratio of 1:1, activated as described above, and lysed with passive ice-cold lysis buffer (1% Brij, 1% n-Octyl-b-D-glucoside, 50 mM Tris-HCl, pH 7.4, 150 mM NaCl, 5 mM ethylenediaminetetraacetic acid, and complete protease inhibitor tablets). Cell lysates were subjected to IP with anti-SHP-1 antibody. […] Reactions were terminated by adding 800 μl 1M NaOH, and SHP-1 activity was determined by measuring absorbance at 405 nm.

With `C[C@@H](N)C1CCC(C(=O)Nc2ccncc2)CC1` (stereo partly drawn) [Formula Y-27, 4-[(1R)-1-aminoethyl]-N N-4-pyridinyl-trans-cyclohexanecarboxamide, dihydrochloride] the SHP-1 catalytic activity was 66.4±1.1%.
